Data on 16 molecules can be found in ChEMBL document CHEMBL1201862, “PubChem BioAssay data set” (2004).

Among the test systems are HCT-116; NCI-H226; SF-295; HL-60; SN12C; SK-MEL-28; EKVX; Malme-3M; DMS-114; SK-OV-3; SK-MEL-5; TK-10; A498; DMS-273.
What all share (assay): DTP human tumour cell line panel, 48 h

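Where inhibition never reached the appropriate level, the endpoint shown equals the highest concentration tested. Otherwise, values were interpolated linearly from a five-concentration, 48-hour dose response in 96-well plates. GI50 marks 50% less growth.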 Calls of active or inactive are those of the source. Rule as the data show it: active = GI50 up to about 1.1 µM and inactive = higher.

`Cc1nc(N)nc(N)c1CCCc1ccccc1`: the GI50 with HCT-116 was 2.7 µM (inactive); in the assay on NCI-H226, 97.7 µM (inactive); with SF-295, 5.18 µM (inactive); in the assay with HL-60, 6.35 µM (inactive); in the assay on SN12C, 3.65 µM (inactive); in the assay on SK-MEL-28 it was 15.2 µM (inactive). Further, the GI50 with EKVX is 15.2 µM (inactive); in the assay with Malme-3M it was 1.73 µM (inactive); in the assay on DMS-114 it was 4.48 µM (inactive); with SK-OV-3 it was 57.5 µM (inactive); in the assay with SK-MEL-5, 4.94 µM (inactive); in the assay with TK-10, > 100 µM (inactive).

Turning to `COc1cc(OC)c2ssc3c(OC)cc(OC)c4ssc1c2-c43`, the GI50 with HCT-116, in the assay with A498, with NCI-H226, with SF-295, in the assay on SN12C and in the assay with SK-MEL-28 was > 100 µM (inactive) in each case. Further, the GI50 in the assay with EKVX, in the assay on DMS-273, with Malme-3M, with DMS-114, with SK-OV-3 and with SK-MEL-5 was > 100 µM (inactive) in each case. In addition, the GI50 with TK-10 is > 100 µM (inactive).

Take `CS/C(=N\c1ccc([N+](=O)[O-])cc1C#N)NC(=O)c1ccccc1`: the GI50 in the assay on HCT-116 was > 100 µM (inactive); with A498, > 100 µM (inactive); in the assay with NCI-H226 it was 33.9 µM (inactive); in the assay on SF-295 it was > 100 µM (inactive); in the assay on HL-60, > 100 µM (inactive); with SN12C, > 100 µM (inactive). Moreover, the GI50 in the assay on SK-MEL-28 was > 100 µM (inactive); in the assay on EKVX, 94.8 µM (inactive); in the assay on Malme-3M, > 100 µM (inactive); in the assay on DMS-114, > 100 µM (inactive); in the assay with SK-MEL-5, > 100 µM (inactive); in the assay on TK-10 it was > 100 µM (inactive).

With `CCCCCCCCCCCCCCCCNc1cccc2ccccc12`, the GI50 in the assay with HCT-116, with NCI-H226, with SF-295, in the assay with HL-60, in the assay on SN12C and in the assay on SK-MEL-28 was > 100 µM (inactive) each time. Further, the GI50 in the assay on EKVX, with DMS-273, with Malme-3M, in the assay on DMS-114, in the assay with SK-OV-3 and in the assay on TK-10 was > 100 µM (inactive) each time.

`NNc1cnn(-c2ccccc2)c(=O)c1Cl`: the GI50 in the assay with HCT-116, with A498, in the assay on NCI-H226, in the assay on SF-295, in the assay with HL-60 and in the assay on SN12C was > 100 µM (inactive) throughout. In addition, the GI50 with SK-MEL-28, with DMS-273, with Malme-3M, in the assay with DMS-114, in the assay on SK-OV-3 and in the assay on SK-MEL-5 was > 100 µM (inactive) throughout. The GI50 in the assay on TK-10 is > 100 µM (inactive).

As for `C/C(CCn1[nH]c(=O)ccc1=O)=N\OCCCc1ccccc1`, the GI50 in the assay with HCT-116, in the assay on A498, in the assay with NCI-H226, with SF-295, in the assay with HL-60 and with SN12C was > 100 µM (inactive) throughout. For the same molecule, the GI50 with SK-MEL-28, with EKVX, in the assay on DMS-273, in the assay on Malme-3M, in the assay with DMS-114 and in the assay with SK-MEL-5 was > 100 µM (inactive) each time. Further, the GI50 in the assay on TK-10 was > 100 µM (inactive).

With `O=C(Nc1ccc(Cl)cc1Cl)C1C(=O)C(=O)N(c2ccc(Cl)cc2Cl)C1=O` (configuration not stated), the GI50 with HCT-116 was 99.1 µM (inactive); with A498, > 100 µM (inactive); in the assay with NCI-H226 it was 34.1 µM (inactive); in the assay on HL-60, > 100 µM (inactive); in the assay on SN12C, > 100 µM (inactive); with SK-MEL-28 it was > 100 µM (inactive). The GI50 in the assay with EKVX, with Malme-3M, in the assay on DMS-114, in the assay on SK-OV-3, in the assay with SK-MEL-5 and in the assay on TK-10 was > 100 µM (inactive) in each case.

In the case of `N#CCCN(CCC#N)C(=O)c1cccc(C(=O)N(CCC#N)CCC#N)c1`, the GI50 with HCT-116 was > 55.6 µM (inactive); with A498, > 100 µM (inactive); with SF-295, > 77.8 µM (inactive); in the assay with HL-60 it was > 55.2 µM (inactive); in the assay on SN12C, > 43.7 µM (inactive); with SK-MEL-28 it was 7.45 µM (inactive). Also, the GI50 in the assay with EKVX was > 46.2 µM (inactive); in the assay on DMS-273 it was > 100 µM (inactive); in the assay on Malme-3M, 72.1 µM (inactive); with DMS-114, > 100 µM (inactive); in the assay with SK-OV-3 it was > 100 µM (inactive); in the assay with SK-MEL-5, > 56.5 µM (inactive).

With `CC(=O)N/C(=C\c1ccc(/C=C(\NC(C)=O)c2nc3cc(Cl)ccc3[nH]2)cc1)c1nc2ccccc2[nH]1`, the GI50 with HCT-116, with A498, in the assay on NCI-H226, in the assay on SN12C, in the assay on SK-MEL-28 and with EKVX was > 100 µM (inactive) in each case. In addition, the GI50 in the assay with DMS-273, in the assay on Malme-3M, in the assay on DMS-114, with SK-OV-3, in the assay on SK-MEL-5 and in the assay with TK-10 was > 100 µM (inactive) in each case.

For `Fc1ccc(F)c(C2SCc3nc4ccccc4n32)c1` (configuration not stated), the GI50 in the assay with HCT-116 was 61 µM (inactive); in the assay on A498 it was 43.8 µM (inactive); in the assay with NCI-H226, > 100 µM (inactive); in the assay on SF-295 it was 29.5 µM (inactive); with HL-60, 20.1 µM (inactive); in the assay with SN12C, > 100 µM (inactive). For the same molecule, the GI50 in the assay on EKVX is 57.9 µM (inactive); with DMS-273, 20.5 µM (inactive); with Malme-3M it was 57.1 µM (inactive); with DMS-114, 23.5 µM (inactive); in the assay with SK-OV-3, > 100 µM (inactive); in the assay on SK-MEL-5 it was 20.3 µM (inactive). Further, the GI50 with TK-10 was 34.3 µM (inactive).

Turning to `O=C(/C=N/O)Nc1ccc(Cl)c(I)c1`, the GI50 was 12.9 µM (inactive) in the assay with HCT-116; 0.0445 µM (active) in the assay with NCI-H226; 29.5 µM (inactive) with SF-295; 19.3 µM (inactive) in the assay with HL-60; 22.5 µM (inactive) in the assay on SN12C; 27.7 µM (inactive) in the assay with SK-MEL-28. The GI50 in the assay with EKVX was 10.8 µM (inactive); with DMS-273, 18.4 µM (inactive); in the assay on Malme-3M, 25.5 µM (inactive); in the assay with DMS-114 it was 16.6 µM (inactive); with SK-OV-3 it was 17.8 µM (inactive); in the assay with SK-MEL-5, 18.4 µM (inactive). Also, the GI50 in the assay on TK-10 is 33.6 µM (inactive).

In the case of `CN(C)CC(C)(C)C(/C=C/c1ccccc1)=N\Nc1ccccc1`, the 50% growth inhibitory concentration (GI50) in the assay with HCT-116 was 0.705 µM (active); with A498, 21.8 µM (inactive); in the assay with SF-295 it was 0.131 µM (active); in the assay with HL-60 it was 1.16 µM (inactive); with SN12C it was 1.71 µM (inactive); in the assay on SK-MEL-28 it was 1.89 µM (inactive). Besides, the GI50 in the assay on EKVX is 0.378 µM (active); in the assay with DMS-273 it was 0.335 µM (active); in the assay on Malme-3M, 10.4 µM (inactive); with DMS-114 it was 4.25 µM (inactive); in the assay on SK-OV-3, 5 µM (inactive); in the assay on SK-MEL-5, 6.64 µM (inactive). Also, in the assay with TK-10, the 50% growth inhibitory concentration (GI50) was 0.162 µM (active).

As for `Fc1ccc(/N=C2C=C/C(=N\c3ccc(F)cc3)c3ccccc3\2)cc1`, the GI50 was > 100 µM (inactive) in the assay on HCT-116; > 100 µM (inactive) in the assay with A498; 77.4 µM (inactive) with NCI-H226; 51.4 µM (inactive) in the assay with SF-295; > 100 µM (inactive) with HL-60; > 100 µM (inactive) in the assay with SN12C. In addition, the GI50 in the assay with SK-MEL-28 was > 100 µM (inactive); with EKVX it was 33.9 µM (inactive); in the assay on DMS-273 it was > 100 µM (inactive); with Malme-3M, > 100 µM (inactive); with SK-OV-3, > 100 µM (inactive); in the assay on SK-MEL-5, > 100 µM (inactive). For the same molecule, in the assay with TK-10, the GI50 is > 100 µM (inactive).

For `O=C(O)C(Cc1ccccc1)N1C(=O)N/C(=C\c2ccc(F)cc2)C1=O` (configuration not stated), the GI50 with HCT-116, with NCI-H226, with SF-295, in the assay on HL-60, in the assay on SN12C and in the assay on EKVX was > 100 µM (inactive) throughout. The GI50 in the assay on DMS-273, in the assay on SK-OV-3, in the assay with SK-MEL-5 and in the assay with TK-10 was > 100 µM (inactive) in each case.

Turning to `COC(=O)C1C2C=CC(C2)N1[C@@H](C)c1ccccc1` (some centres not stated), the GI50 in the assay on HCT-116, in the assay with A498, in the assay on SF-295, with HL-60, in the assay with SN12C and with SK-MEL-28 was > 100 µM (inactive) in each case. For the same molecule, the GI50 in the assay on EKVX, in the assay with DMS-273, in the assay on Malme-3M, in the assay on SK-OV-3, with SK-MEL-5 and in the assay with TK-10 was > 100 µM (inactive) each time.

As to `CC(C)C1CC(O)O[C@@H]([C@@H](C)[C@H]2CC(=O)[C@@H]3[C@@H]4[C@@H](O)[C@H](O)[C@H]5[C@@H](O)[C@H](O)CC[C@]5(C)[C@H]4CC[C@]23C)C1` (some centres not stated), the GI50 was 29.4 µM (inactive) in the assay on HCT-116; > 100 µM (inactive) with NCI-H226; 47.8 µM (inactive) in the assay with SF-295; > 100 µM (inactive) in the assay on HL-60; 28.7 µM (inactive) in the assay with SN12C; > 100 µM (inactive) with SK-MEL-28. Moreover, the GI50 is 66.1 µM (inactive) in the assay on EKVX; 39.8 µM (inactive) in the assay with DMS-273; 77.4 µM (inactive) with Malme-3M; 34.5 µM (inactive) in the assay on SK-OV-3; 52.2 µM (inactive) in the assay with SK-MEL-5; 38.3 µM (inactive) in the assay with TK-10.
